Measurements: patent US20080213248A1, “Methods and Systems for Treating Asthma and Other Respiratory Diseases” (UNIVERSITY OF FLORIDA RESEARCH FOUNDATION, INC., priority 2004, published 2008)

How the values were obtained:
[1] = molecular target: TRPM8 receptors; details: previous in vitro studies; read-out: antagonistic potencies (IC50) for TRPM8 receptors; cited from earlier work
[2] = molecular target: T1, TRPM8 receptors (Rattus norvegicus, UniProt Q8R455); test: TRPM8 expression in cultured sensory neurons in the presence of NGF; type: cell-based; details: NGF present
T1 construct: increase in number of TRPM8-expressing neurons in cell culture when in the presence of nerve growth factor (NGF); endogenous in cells; host or cells: cultured sensory neurons
Text: Inflammation in lung tissues often can result in the increases the levels of nerve growth factor (NGF). […] Upregulation of TRPM8 receptors on these nerves can sensitize their responses to cold stimulation. FIGS. 8a and 8b illustrate the numbers of TRPM8 expression neurons and the responsiveness of these neurons to the TRPM8 ligand menthol. Specifically, FIG. 8a is a graphical illustration of an increase in number of TRPM8-expressing neurons in cell culture when in the presence of nerve growth factor (NGF). […] is a graphical illustration of the response of TRPM8-expressing neurons to the TRPM8 receptor agonist menthol when cultured in the presence or absence of NGF. The one day cultures were used in the absence of NGF.
Inflammatory reactions in bronchopulmonary tissues of asthma animals are known to result in an increased level of nerve growth factor (NGF). […] An up-regulation of TRPM8 receptors in inflammatory bronchopulmonary tissues will make animals more susceptible to cold.

[3] = tested on: vagus ganglion neurons (VGNs); test: Ca2+ imaging (Fluo-3) of acutely dissociated vagus ganglion neurons; type: cell-based, rat
Method: In one embodiment, retrograde labeling of vagus ganglions or bronchopulmonary tissues is performed on a murine or rat model. […] Instillation of the nerve tracing dye in the lower part of mice trachea was performed and, after 7 days, the mice (or rats) were sacrificed and the vagus ganglions were harvested, dissociated, and plated in dishes. Calcium-imaging approach was then used to identify bronchopulmonary vagus afferent neuron response to cold and menthol. […] All the data were represented as mean ±SEM. Paired-t tests were used for statistical comparison, and significance was considered at the p<0.05. To perform calcium imaging, VGNs were incubated with 2 μM Fluo3-AM in 20% pluronic acid (Molecular Probes, Eugene, Oreg.) for 30 min at 37° C. to load Ca^2+ indicator. The cells were then perfused with normal bath solution flowing at 1 ml/min in a 0.5 ml chamber. The normal bath solution contained (in mM): 150 NaCl, 5 KCl, 2 MgCl2, 2 CaCl2, 10 glucose, 10 HEPES, pH 7.2, osmolarity adjusted to 320 mOsm with sucrose. Fluo-3 fluorescence in the cells was detected using a peltier-cooled charge-coupled device (CCD) camera (PentaMAX-III System, Roper Scientific, Trenton, N.J.) under a fluorescent microscope (10× objective). Excitation was at 450 nm and emission at 550 nm, achieved by a fluorescence filter sets. Images were taken at one frame per second, and digitized using MetaFluor software (Universal Imaging Corporation). Unless otherwise indicated, all experiments were carried out at an ambient temperature of 26° C. Effects of cold on intracellular Ca^2+ levels were tested by application of a cold bath solution, which yield temperature drop from 26° C. to 19° C. within 1 min in the recording chamber. […] In a related embodiment, Adult Sprague-Dawley rats (200 to 300 g, n=48) were used according to the Institutional Animal Care and Use Committee guideline of the University of Florida. The rats were continuously anesthetized with isoflurane using an anaesthetizing machine. To retrograde label the vagus ganglion neurons that innervate low airway tissues, a 20 μl-DiI was instilled into the caudal region of the trachea in living adult rats (see FIG. 1a, which illustrates the instillation of DiI into the lower segment of rat trachea to retrograde label airway VGNs). The animals were positioned supine during dye instillation and kept the same position for 30 min before recovery from anesthesia. […] The neurons were plated on glass coverslips previously covered with PDL and used within 4 hours after plating.

[4] = tested on: vagus ganglion neurons (VGNs); test: Whole-cell patch-clamp recordings (voltage-clamp and current-clamp) on menthol-responsive VGNs; type: cell-based, rat
[5] = tested on: rats; test: Inhalation of menthol, respiratory reaction; type: in vivo, rat

T1 sequence (Q8R455 whole entry): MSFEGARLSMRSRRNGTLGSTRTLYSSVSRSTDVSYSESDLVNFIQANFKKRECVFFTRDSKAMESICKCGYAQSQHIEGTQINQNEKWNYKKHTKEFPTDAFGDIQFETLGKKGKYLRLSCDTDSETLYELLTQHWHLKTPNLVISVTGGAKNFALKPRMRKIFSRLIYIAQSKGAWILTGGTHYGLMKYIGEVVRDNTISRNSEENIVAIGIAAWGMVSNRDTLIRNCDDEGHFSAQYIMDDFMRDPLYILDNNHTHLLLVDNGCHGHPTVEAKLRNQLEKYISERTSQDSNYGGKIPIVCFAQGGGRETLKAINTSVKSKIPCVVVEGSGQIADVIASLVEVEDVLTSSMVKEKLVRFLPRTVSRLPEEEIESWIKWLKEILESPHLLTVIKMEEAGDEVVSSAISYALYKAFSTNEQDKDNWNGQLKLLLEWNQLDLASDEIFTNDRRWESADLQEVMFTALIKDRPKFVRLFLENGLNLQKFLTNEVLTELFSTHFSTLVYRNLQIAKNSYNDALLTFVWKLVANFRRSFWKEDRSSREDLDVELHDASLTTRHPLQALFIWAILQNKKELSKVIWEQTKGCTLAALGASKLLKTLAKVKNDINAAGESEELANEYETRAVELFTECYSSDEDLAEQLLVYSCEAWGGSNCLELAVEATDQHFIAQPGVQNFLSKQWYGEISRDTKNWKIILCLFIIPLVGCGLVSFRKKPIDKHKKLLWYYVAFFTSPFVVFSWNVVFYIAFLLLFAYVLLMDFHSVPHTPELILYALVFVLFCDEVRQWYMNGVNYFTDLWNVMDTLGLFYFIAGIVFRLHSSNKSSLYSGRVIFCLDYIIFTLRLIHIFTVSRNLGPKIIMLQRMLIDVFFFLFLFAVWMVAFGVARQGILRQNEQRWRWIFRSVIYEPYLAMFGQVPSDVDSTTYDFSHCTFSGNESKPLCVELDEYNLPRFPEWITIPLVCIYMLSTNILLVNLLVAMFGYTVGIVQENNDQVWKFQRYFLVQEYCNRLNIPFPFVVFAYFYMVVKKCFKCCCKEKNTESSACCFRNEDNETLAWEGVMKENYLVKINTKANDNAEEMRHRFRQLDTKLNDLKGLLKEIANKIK

Which IC50 [1] does the source give for `Oc1cc2c(cc1O)CN(C(=S)NCCc1ccc(Cl)cc1)CCC2` [capsazepine] here?
The IC50 was 18 ± 1.1 µM.

With NGF: nerve growth factor as the molecule, how does the TRPM8 receptor expression [2] read?
The TRPM8 receptor expression was “up-regulated”.

Which “DiI-labeled cells both menthol- and cold-responsive” value ([3]; 27 of 170 DiI-labeled cells, menthol 100 μM, cold 26 to 19° C.) does the source give for `CC1CCC(C(C)C)C(O)C1` (stereo not shown) [menthol] here?
The value was 16%.

And the “DiI-labeled cells showing response to menthol” value ([3]; menthol 100 μM, 20 s, 28 of 170 DiI-labeled cells)?
Its value is 17%.

What about the “VGNs with increases of intracellular Ca2+” value ([3]; menthol 100 μM, 20 s, 116/1638 cells, DiI-labeled and non-labeled, response ΔF/F0 >0.1) of the same molecule?
The value was 7%.

What about the “membrane potential after depolarization by menthol” value ([4]; menthol 100 μM, 20 s, current-clamp, from resting potential 60±0.6 mV, n=4) of the same molecule?
The value was 38±1.5 mV.

What about the menthol-evoked inward current ([4]; menthol 100 μM, 20 s, voltage-clamp, held at −70 mV, n=7) of the same molecule?
Its menthol-evoked inward current is 191±29 pA.

And the action potential firing ([4]; menthol 100 μM, current-clamp)?
Its action potential firing is “action potentials elicited”.

And the action potential firing ([4]; menthol 100 μM, current-clamp, listed as Menthol)?
The action potential firing was “caused action potential firing”.

And the “reversal potential of menthol-evoked currents” value ([4]; voltage ramp, strong outward rectification, n=4)?
The value was −2±0.3 mV.

What about the “respiratory reaction on inhalation” value ([5]; menthol 1 μM) of the same molecule?
The value was “respiratory reaction is not obvious”.

What about the “respiratory reaction on inhalation” value ([5]; menthol 1 mM, n=3) of the same molecule?
Its value is “results in a breathing difficulty”.

For `CC(C)(C)c1ccc(NC(=S)N2CCN(c3ncccc3Cl)CC2)cc1` [thio-BCTC], which IC50 [1] is on record?
Its IC50 is 3.5 ± 1.1 µM.

Which IC50 [1] does the source give for `NCCOB(c1ccccc1)c1ccccc1` [2-APB, 2-aminoethoxydiphenyl borate] here?
Its IC50 is ~50 µM.

With `CC(C)(C)c1ccc(NC(=O)N2CCN(c3ncccc3Cl)CC2)cc1` [BCTC, N-(4-Tertiarybutylphenyl)-4-(3-cholorphyridin-2-yl)tetrahydropyrazine-1(2H)-carbox-amide] as the molecule, how does the IC50 [1] read?
Its IC50 is 0.8 ± 1 µM.

Which “ATP sensitivity of menthol-responsive VGNs” value ([3]; Ca2+ imaging, menthol and ATP responses) does the source give for `Nc1ncnc2c1ncn2[C@@H]1O[C@H](COP(=O)(O)OP(=O)(O)OP(=O)(O)O)[C@@H](O)[C@H]1O` [ATP] here?
The value was “almost all menthol-responsive VGNs were ATP-sensitive”.
